Non-standard residues stand in square brackets, D forms with d. Residues, ends and D or L forms follow the SMILES beside them. *: point of attachment. Biotin = O=C1N[C@H]2[C@H](CS[C@H]2CCCCC(=O)*)N1; pS = N[C@@H](COP(=O)(O)O)C(=O)O; Ahx = NCCCCCC(=O)O
What was measured:
PHEX = biological target: T1, PHEX (Homo sapiens, UniProt P78562); test: Surface plasmon resonance: PHEX analyte binding to immobilized biotinylated ASARM-PO4; details: immobilized biotinylated ASARM-PO4, soluble PHEX analyte, FIG. 4(A); read-out: kinetics of binding
T1 sequence (P78562 46-749 limits assumed): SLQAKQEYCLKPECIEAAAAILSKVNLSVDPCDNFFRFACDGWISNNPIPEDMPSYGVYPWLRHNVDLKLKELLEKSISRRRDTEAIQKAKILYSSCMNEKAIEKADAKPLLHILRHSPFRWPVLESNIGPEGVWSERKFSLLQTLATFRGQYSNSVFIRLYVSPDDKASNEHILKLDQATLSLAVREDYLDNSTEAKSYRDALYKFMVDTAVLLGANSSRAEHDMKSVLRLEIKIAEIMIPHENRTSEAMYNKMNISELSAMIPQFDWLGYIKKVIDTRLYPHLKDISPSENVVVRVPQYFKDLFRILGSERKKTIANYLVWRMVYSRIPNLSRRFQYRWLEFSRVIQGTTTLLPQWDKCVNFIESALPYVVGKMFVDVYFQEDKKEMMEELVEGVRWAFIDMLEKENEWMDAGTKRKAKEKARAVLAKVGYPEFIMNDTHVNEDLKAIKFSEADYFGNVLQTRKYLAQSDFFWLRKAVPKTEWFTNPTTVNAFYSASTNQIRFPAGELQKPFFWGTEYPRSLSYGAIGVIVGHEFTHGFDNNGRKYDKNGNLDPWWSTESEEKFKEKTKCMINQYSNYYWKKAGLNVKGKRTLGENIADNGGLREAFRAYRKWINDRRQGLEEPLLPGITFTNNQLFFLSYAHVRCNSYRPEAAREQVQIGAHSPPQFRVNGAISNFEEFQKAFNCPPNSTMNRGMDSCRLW
Procedure: A Biacore 3000 SPR instrument in conjunction with CM5 research grade chips was used to conduct the surface Plasmon Resonance (SPR) experiments (Biacore, Piscataway, N.J.) as previously described (Rowe et al., Bone 36:33-46 (2005)). The experiments were performed at 25° C. using Biacore buffer (10 mM HEPES pH 7.4, 150 mM NaCl, 0.005% surfactant P20) supplemented with 2 mM ZnCl2 (HBS-P-Zn) or without ZnCl2 (HBS-P) as indicated. Samples were injected at a flow rate of 5 ul/min. The surfaces of research grade CM5 chips were activated by a 6-min. injection of a solution containing 0.2 M N-ethyl-N9-(dimethylaminopropyl) carbodiimide and 0.05 M N-hydroxy-succinimide. Neutravidin (Pierce) was then immobilized on the same chip (ligands) in all four flow-cells using amine coupling chemistry. One neutravidin surface was left blank as a negative control. Biotinylated peptides (including biotinylated ASARM-PO4 peptide) were then added and captured on other individual flow-cells. […] The experiments were repeated on two different chips and immobilized peptides measured as surface plasmon response units as previously described (Rowe et al., Bone 36:33-46 (2005)). The response unit or RU is a measure of surface charge density oscillation and surface […] generation as detected by changes in incident refractive index monitored by the Biacore optical unit. […]

[1] = tested on: Murine bone marrow stromal cell (BMSCs) cultures; test: Bone marrow stromal cell mineralization assay (alizarin red staining); type: cell-based, mice
Procedure: The epiphyses of the bones from wild type (“WT”) and HYP mice were removed, and whole marrow was flushed from the diaphyses by centrifugation at 11500 rpm for 30 seconds in standard culture medium, which consisted of α-MEM (Mediatech Inc, Herndon Va., USA) supplemented with 10% FBS (Mediatech Inc, Herndon Va., USA), 10 U/ml penicillin/100 ug/ml streptomycin. The supernatant was removed, and the cell pellet was resuspended in fresh standard medium. The resuspended cells were plated in standard 25 cm^2 flasks and allowed to grow until confluence. The cells were passaged with 0.25% trypsin and 0.02% EDTA (Sigma Aldrich, Saint Louis, Mo., USA). Cells were plated on 24-well plastic culture plates at a concentration of 10×10^4 cells/well. Starting 72 hours after seeding (referred to as Day 0) nonadherent cells were discarded, and the medium was changed to one that supports osteoblast differentiation, that is, standard media plus 10 mM B glycerophosphate (Sigma Aldrich, Saint Louis, Mo., USA) and 50 mg/liter ascorbic acid (Sigma Aldrich, Saint Louis, Mo., USA). […] For quantification of staining, 500 μL 10% (v/v) acetic acid was added to each well, and the plate was incubated at room temperature for 30 min. with shaking. […] 150 μL aliquots of the supernatant were read in triplicate at 450 nm in 96-well format using opaque-walled, transparent-bottomed plates.

## N=C(N)NCCC[C@H](NC(=O)CCCCCNC(=O)CCCC[C@@H]1SC[C@@H]2NC(=O)N[C@@H]21)C(=O)N[C@@H](CC(=O)O)C(=O)N[C@@H](CC(=O)O)C(=O)N[C@@H](CO)C(=O)N[C@@H](CO)C(=O)N[C@@H](CCC(=O)O)C(=O)N[C@@H](CO)C(=O)N[C@@H](CO)C(=O)N[C@@H](CC(=O)O)C(=O)N[C@@H](CO)C(=O)NCC(=O)N[C@@H](COP(=O)(O)O)C(=O)N[C@@H](CO)C(=O)N[C@@H](COP(=O)(O)O)C(=O)N[C@@H](CCC(=O)O)C(=O)N[C@@H](COP(=O)(O)O)C(=O)N[C@@H](CC(=O)O)C(=O)NCC(=O)N[C@@H](CC(=O)O)C(=O)O [biotinylated-ASARM-PO4] ({Biotin-Ahx}-RDDSSESSDSG[pS]S[pS]E[pS]DGD-OH)
PHEX
  Kd: 168 nM

## NH2-LKGDHSGGNGNYTGLDYNIPGYFRSTIPFHGEVDKENVAR-OH (H-LKGDHSGGNGNYTGLDYNIPGYFRSTIPFHGEVDKENVAR-OH; listed as Homo sapiens) [SPR5]
[1]; BMSC cultures supplemented with 10 μM peptide alone
  mineralization (alizarin red): mineralization occurs with great efficiency

## NH2-RDDSSESSDSGS(PO3H2)SS(PO3H2)ES(PO3H2)DGD-OH (H-RDDSSESSDSG[pS]S[pS]E[pS]DGD-OH; listed as Homo sapiens) [ASARM-PO4]
[1]; BMSC cultures supplemented with 5 μM ASARM-PO4 alone
  mineralization (alizarin red): marked and statistically significant inhibition of mineralization

Reference: patent publication US7825217B2, “Polypeptides for bone mineralization” (University of Kansas Medical Center, priority 2006, dated 2010)
